Like-named read-outs stand apart in the source and are kept apart here.
Columns and labels:
[1] = target: T1, LsrK (Salmonella typhimurium, UniProt Q8ZKQ6); experiment: LsrK inhibition assay (Kinase-Glo luminescence); type: biochemical, S. typhimurium; conditions: for inhibition at 200 µM: compound at 200 μM
T1 construct: hexa-histidine (C); made in house; host or cells: E. coli BL21(DE3), pET-28a
Description: (§1) To express LsrK or LsrK-N with a hexa-histidine tag at the C-terminus, the LsrK or LsrK-N encoding gene of S. typhimurium was amplified using primers carrying restriction endonuclease sites for BamHI and XhoI, respectively. The amplified product was cloned into the expression vector pET-28a with a C-terminal hexa-histidine tag and transfected into E. coli BL21(DE3) cells. The transformed cells were selected on LB agar plates containing 50 µg/mL kanamycin. The recombinant isolates were grown at 37 °C to the mid-log exponential phase. Protein synthesis was induced by 0.5 mM IPTG. After overnight growth, the cells were pelleted at 13,000× g for 10 min at 4 °C, resuspended in lysis buffer (50 mM NaH2PO4, 300 mM NaCl, and pH 8.0), and sonicated on ice for 10 cycles with a 30-s pulse and 30-s pause. The bacterial lysate was then centrifuged at 4 °C, 13,000× g for 10 min, and the supernatant passed through a 0.22 µm filter.
The LsrK inhibition assay was performed as described previously. The 62 selected compounds were dissolved in DMSO at a concentration of 2 mM. The assay was carried out with final concentrations of 300 nM LsrK, 100 μM ATP, and 300 μM DPD in a reaction buffer containing 25 mM TEA, pH 7.4, 800 μM MgCl2, and 0.1 mg/mL BSA. Specifically, 10 μL DPD, 10 μL LsrK, and 5 μL of the compound were added to a 96-well plate, and a 25 μL ATP or 25 μL reaction buffer was added after 30 min of incubation. The plate was incubated for 10 min at 37 °C, then 50 μL of kit reagent was added and the plate was incubated at 37 °C for 15 min. The luminescence signal was measured by the Enspire 2300 microplate reader (PerkinElmer). To confirm the activity of hits selected by primary screening, dose-response experiments were performed (200–6.25 µM). The inhibition % for each tested compound was determined as described previously. The IC50 values were calculated using the four logistic parameters.

[2] = test system: AI-2 QS in WHQ01 (S. typhimurium ATCC 202165 ΔTolC pWHQ01); experiment: Cell-based AI-2-mediated QS interference assay in WHQ01; conditions: Salmonella enterica, read-out: WHQ01 (IC50)
Text: (§2) All chemicals were purchased from Sigma-Aldrich (St. Louis, MO, USA) if not otherwise stated. DPD was purchased from […] ZZBIO Co., Ltd. (Shanghai, China). The Kinase-Glo Max Luminescent kinase assay kit was purchased from Promega Corp. (Madison, WI, USA). The NTA sensor chip was purchased from GE Healthcare (Chicago, IL, USA). All compounds selected by virtual screening were purchased from Topscience Biotechnology Co., Ltd. (Shanghai, China). The QS reporter strains WHQ01 (S. typhimurium ATCC 202165 ΔTolC pWHQ01) and WHQ02 (E. coli BL21 ΔTolC pWHQ01) were donated by Huiqi Wen (Institute of Microbiology and Epidemiology, Academy of Military Sciences, Beijing, China). The plasmid pWHQ01 was constructed by cloning of lsr promoters and the luxCDABE luminescent gene. BamHI, XhoI, EcoRI, and NotI restriction endonucleases were purchased from New England Biolabs (Ipswich, MA, USA). pET-28a and pGEX-4T-1 were purchased from Novagen (Madison, WI, USA). E. coli BL21 (DE3) was purchased from TransGen Biotech Co., Ltd. (Beijing, China). The Ni-NTA column and GST Gravity column were purchased from Sangon Biotech (Shanghai, China). Sodium dodecyl sulfate-polyacrylamide gel electrophoresis (SDS-PAGE) gels and the Bradford Protein Assay Kit were purchased from Thermo Fisher Scientific (Waltham, MA, USA). Ultrafiltration centrifuge tubes were purchased from Millipore (Bedford, MA, USA). Dialysis bags were purchased from Beijing Solarbio Science and Technology Co., Ltd. (Beijing, China).
(§3) WHQ01 or WHQ02 was cultured overnight and diluted 1:100 in fresh LB supplemented with 100 µg/mL ampicillin and grown at 30 °C until the logarithmic phase (OD600 = 0.4–0.6). The bacterial culture was centrifuged at 4000× g for 5 min and the pellet was resuspended with fresh LB to prepare a suspension of 2 McFarland standard, which was added to a 96-well plate. In the experimental group, 62 compounds with final concentrations ranging from […] were added to obtain a total volume of 100 µL. A negative control comprising 100 µL of LB with DMSO of the same volume and a positive control comprising 100 µL of LB supplemented with 2% glucose and DMSO of the same volume were also added. Then, bacteria were grown at 37 °C for 3 h. The […] of WHQ01 or WHQ02 was directly regulated by the Lsr promoters to reflect the strength of AI-2 QS. Luminescence was measured by the Enspire 2300 microplate reader. To further study the effect of compounds on bacterial growth, a suspension containing 1 × 10^8 CFU/mL of WHQ01 or WHQ02 (0.5 McFarland standard) was diluted 1:100 with LB and added to a 96-well plate. Compounds were added to the 96-well plate at a final concentration of 100 µM and diluted in a gradient. DMSO of the same volume was added as the control group. The plate was grown at 37 °C for 18–24 h. The OD600 values were recorded using the Enspire 2300 microplate reader. The experiment was performed three times.

[3] = test system: AI-2 QS in WHQ02 (E. coli BL21 ΔTolC pWHQ01); experiment: Cell-based AI-2-mediated QS interference assay in WHQ02; conditions: Escherichia coli
Text: as §2, §3

[4] = target: T1, LsrK; experiment: LsrK inhibition assay (Kinase-Glo luminescence); type: biochemical, S. typhimurium; conditions: dose-response curves at 50, 100 and 150 μM ATP
[5] = target: T2, LsrK-N protein (HPr binding domain, residues 1-260) (Salmonella typhimurium, UniProt Q8ZKQ6); experiment: SPR assay on immobilized LsrK-N; parameters: species or system S. typhimurium
T2 construct: hexa-histidine (C); made in house; host or cells: E. coli BL21(DE3), pET-28a
T2 sequence (Q8ZKQ6 1-260): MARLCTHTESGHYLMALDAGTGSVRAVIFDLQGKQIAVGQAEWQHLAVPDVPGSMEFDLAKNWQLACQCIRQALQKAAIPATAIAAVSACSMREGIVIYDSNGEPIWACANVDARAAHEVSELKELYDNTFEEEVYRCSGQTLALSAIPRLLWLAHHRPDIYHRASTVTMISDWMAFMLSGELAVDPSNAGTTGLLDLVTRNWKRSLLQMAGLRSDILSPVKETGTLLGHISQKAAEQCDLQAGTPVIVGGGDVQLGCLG
Description: as §1
(§4) Serial dilutions of compound 4171-0375 were injected, ranging in concentrations from 100 to 1.56 µM, an intermediate concentration of 12.5 µM was set as a repeat, and 1× PBS-T with 5% v/v DMSO was set as a control group. The association time was set to 120 s, the dissociation time was set to 130 s, and the flow rate was set to 30 µL/min. The resulting data were fit to the affinity binding model using Biacore Evaluation Software (GE Healthcare).

[6] = target: T1, LsrK; experiment: SPR assay on immobilized LsrK; type: binding, S. typhimurium
Description: as §1, §4

[7] = dose-response 200–6.25 µM, 100 μM ATP, 300 μM DPD, mean ± SD, n = 3, read-out: LsrK (IC50)
[8] = dose-response assay, read-out: LsrK inhibition IC50

T1 sequence (Q8ZKQ6 whole entry): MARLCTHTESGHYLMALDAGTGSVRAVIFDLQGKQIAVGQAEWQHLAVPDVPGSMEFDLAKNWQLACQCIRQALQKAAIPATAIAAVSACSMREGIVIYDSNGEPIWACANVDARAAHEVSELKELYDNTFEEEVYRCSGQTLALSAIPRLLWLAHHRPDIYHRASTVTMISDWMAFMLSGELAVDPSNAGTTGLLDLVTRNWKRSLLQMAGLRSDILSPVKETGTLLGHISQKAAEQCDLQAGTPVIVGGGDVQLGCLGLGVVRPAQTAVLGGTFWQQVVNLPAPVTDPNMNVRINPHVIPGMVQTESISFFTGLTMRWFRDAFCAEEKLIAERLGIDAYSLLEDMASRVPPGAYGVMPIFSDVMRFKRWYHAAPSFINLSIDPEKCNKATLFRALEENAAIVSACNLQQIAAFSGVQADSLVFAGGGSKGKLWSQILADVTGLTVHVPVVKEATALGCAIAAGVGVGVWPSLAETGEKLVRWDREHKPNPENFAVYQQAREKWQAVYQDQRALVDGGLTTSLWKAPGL

| Compound | inhibition at 200 µM ([1]; mean ± SD, n = 3) [%] | IC50 [1, 7] [µM] | IC50 [2] [µM] | IC50 ([3]; BL21, read-out: WHQ02 (IC50)) [µM] | IC50 [1, 8] [µM] | ATP competition (mode of inhibition) [4] | IC50 ([3]; BL21, read-out: AI-2 QS inhibition IC50 against WHQ02) [µM] | Kd ([5]; His-tagged LsrK-N on NTA chip, Biacore 8K, affinity model) [µM] | binding and dissociation behaviour on LsrK-N (SPR) ([5]; sensorgram, in words) | Kd ([6]; His-tagged LsrK on NTA chip, Biacore 8K, affinity model) [µM] | binding and dissociation behaviour on LsrK (SPR) ([6]; sensorgram, in words) |
| --- | --- | --- | --- | --- | --- | --- | --- | --- | --- | --- | --- |
| CCOc1cc(C2NC(C(=O)O)CS2)ccc1OCc1c(F)cccc1Cl (stereo not shown) [Compound 8012-5390] | 60 ± 4 | 147 ± 5.58 | 23.3 ± 1.05 | 17.7 ± 0.98 | – | – | – | – | – | – | – |
| Cc1c(CC(=O)O)c(=O)oc2c(C)c(OCc3ccc(F)cc3F)ccc12 [Compound D715-0257] | 57 ± 7 | 153 ± 5.43 | 21.1 ± 1.18 | 22.3 ± 2.15 | – | – | – | – | – | – | – |
| CN1CCN(C(=O)c2ccc(NCc3ccc(F)cc3)c(S(=O)(=O)Nc3cccc(C(F)(F)F)c3)c2)CC1 [Compound K659-0421] | 75 ± 8 | 73.7 ± 5.33 | 7.97 ± 0.38 | 17 ± 0.37 | < 100 | non-ATP competitive inhibitors | – | – | – | – | – |
| CCOc1cc(/C=N/NC(=N)N)ccc1OCc1ccc(Cl)cc1 [Compound 4171-0375] | 98 ± 7 | 26.1 ± 2.94 | 42.9 ± 1.63 | 30.1 ± 1.62 | < 100 | non-ATP competitive inhibitors | 29.1 ± 1.23 | 25.1 | quickly bound and dissociated | 94.5 | quickly bound and dissociated |
| COc1cc(/C=C2/SC(=S)N(c3cccc(C(F)(F)F)c3)C2=O)ccc1OCC(=O)O [Compound 3229-1889] | 63 ± 4 | 121 ± 5.37 | 24.7 ± 1.42 | 15 ± 1.24 | – | – | – | – | – | – | – |
| NCCc1cn(Cc2ccc(C(F)(F)F)cc2)nn1 [Compound 8020-4294] | 65 ± 9 | 148 ± 6.92 | 24.9 ± 1.1 | 67.2 ± 4.32 | – | – | – | – | – | – | – |
| Cc1ccc(NC(=O)C[C@H](C)n2ccnc2)cc1Cl [Compound G268-0878] | 58 ± 5 | 129 ± 6.14 | 30.6 ± 1.26 | 42.3 ± 1.42 | – | – | – | – | – | – | – |

Source: paper PMC10223898 (Pharmaceuticals, 2023)
